“And” between values parts separate entries of the source, which are not always exact repeats. Equal values may be shown once. “Also recorded” adds a separate entry of the source.
How the values were obtained:
[1] = pKa measurement; format: physicochemical
[2] = system: E. coli; assay: Broth microdilution MIC at incremental pH, E. coli; format: cell-based
Procedure: MIC testing is conducted using the broth (Mueller Hinton Broth) microdilution procedures relevant to each organism group as established by the Clinical and Laboratory Standards Institute (CLSI; 3-7). MIC plates are prepared in accordance with CLSI (3-7). To prepare the test plates, automated liquid handlers are used to conduct serial dilutions and liquid transfers. Automated liquid handlers utilized in this study include the Multidrop 384 (Labsystems, Helsinki, Finland) and the Biomek 2000 (Beckman Coulter, Fullerton CA). The solution is diluted to desired pH using 1 M Citric Acid or 1 M NaOH buffer. A standardized inoculum of each test organism is prepared per CLSI methods (3, 5-7) to equal a 0.5 McFarland standard in the appropriate media followed by an additional 1:20 dilution (1:10 for anaerobes).
The plates are then inoculated with 10 μL of the diluted 0.5 McFarland suspension using the Biomek 2000 from low to high drug concentration, resulting in a final concentration of approximately 5×10^5 CFU/mL per well. An un-inoculated plate is incubated for the purpose of assessing solubility of the drug in the test media. The plates are stacked 3 to 4 high, covered with a sterile lid on the top plate, and incubated for 18 to 24 hours according to CLSI. The MIC is recorded as the lowest concentration of respective compound that inhibited visible growth of the organism.

[3] = system: Haemophilus influenzae; assay: MIC at pH 3.5, CLSI, Mueller-Hinton broth; format: cell-based; settings: 5 isolates
[4] = system: Acinetobacter baumannii (ATCC 19606); assay: Neutropenic lung infection model in mice, lung bacterial burden (Example 25); format: in vivo, BALB/c mice; settings: for antibacterial effect on A. baumannii vs day 3 vehicle control: 10% solution aerosol once daily, p<0.05; for Log10 CFU/g lung Mean ± SD / Log10 CFU/g lung: Nu-8 (10%), aerosol, 2 h post end of treatment; for Log10 CFU/g lung Mean ± SD: group mean; for Log10 CFU/g lung: individual animals
Procedure: Neutropenic, BALB/c female mice, all of which were from 6 to 8 weeks of age, were infected intranasally with ˜2×10^7 CFU/lung Acinetobacter baumannii (ATCC 19606). Twenty-four hours after infection; animals were treated by aerosol route with vehicle or Nu-8 (10% solution), once daily for one, three, and five days. Following treatment for 1, 3, and 5 days, animals were terminated, and lung tissues were collected to determine the bacterial load.
The mice were separated into cohorts in accordance with Table 26.
On day −4 (four days before the date of infection), each mouse was dosed with a single intraperitoneal injection of cyclophosphamide equivalent to 150 mg/kg and returned to its cage. On day −1 (one day before infection) each mouse received a dose equivalent to 100 mg/kg of cyclophosphamide.
On day −1, an aliquot from glycerol stocks of Acinetobacter baumannii (ATCC19606) was thawed, inoculated into fresh Casein Soybean Digest Broth (CSDB) and incubated overnight at 37° C.
On the day of infection (Day 0), the overnight culture was checked, centrifuged and the cells were pelleted and resuspended in sterile normal saline to obtain approximately 10^9 CFU/ml Acinetobacter baumannii, which was used for infection. The inoculum was serially diluted ten-fold in sterile CSDB and 0.05 ml of six dilutions was plated onto CSD Agar plates to determine the viable count (CFU/ml) of inoculum.
Animals were divided into different groups as specified in the experimental design (Table 26). Infections were conducted in a biological safety cabinet, with appropriate personnel protection. Mice were placed into an induction chamber and anesthesia was induced by exposing the animals to 3%-5% Isoflurane in an oxygen flow set at approximately 1 liter per minute (LPM). Once the animals were in a sufficiently deep plane of anesthesia, they were removed and infected. Infection was done by instilling 0.02 ml (containing ˜1×10^9 CFU/ml) of the inoculum; 10 μl was instilled into each nostril of the anesthetized animal intra-nasally using a 10 μl pipette (˜2×10^7 CFU/animal). A gentle shaking/mixing of inoculum between two animals was followed for uniform distribution.
The vehicle used for the test compound was saline (0.9% NaCl adjusted to pH 3.5 with citric acid). To make 10% Nu-8 solution, 15 g of compound was weighed and dissolved in 145 ml of 0.9% NaCl; pH of solution was adjusted to 3.5 by adding 2.4 ml of citric acid solution and to this solution, 2.6 ml of 0.9% NaCl solution was added to make up the volume to 150 ml. The same procedure was followed on day 2, 3, 4 and 5.
Treatment was initiated twenty-four hours post infection. Test formulations were administered by aerosol route with nose-only apparatus connected to a nebulizer (Omron Ne-C28 Compressor Nebulizer with a volume capacity of 15 ml, Particle size 3 μm, nebulization rate: 0.5 ml/min, and Aerosol output rate: 0.09 ml/min). The formulation prepared previously was placed into the nebulizer fluid cup; animals were placed in the nose-only apparatus and the entire system was placed inside a Class II Biosafety Cabinet. Animals received nebulization for 20 min, followed by a 30-minute rest and then an additional 20-minute exposure at the same dose concentration (the flow rate and percentage of test material available at the inhalation port was 16% of the initial concentration in the nebulizer if the test compound is in solution).
Groups of animals were euthanized at 2 h post treatment, as specified in the experimental design, by an overdose of CO2 in an appropriate exposure chamber.
The euthanized animals were dipped into 70% ethanol for surface decontamination. Lungs were aseptically excised, weighed, placed in a 2 ml centrifuge tube containing 1 ml of sterile CSDB broth, and homogenized (Omni Tip (220THB handheld)). Serial ten-fold dilutions of the lung homogenates were prepared in sterile CSDB broth and 0.05 ml of four dilutions for each lung was plated onto CSDA agar plates. […]

## CCCCOP(=O)(O)OC[C@H]1O[C@@H](n2ccc(N)nc2=O)C[C@@H]1OP(=O)(O)OCCCC [Nu-8, sodium ((2R,3S,5R)-5-(4-amino-2-oxopyrimidin-1(2H)-yl)-3-((butoxyoxidophosphor-yl)oxy)tetrahydrofuran-2-yl)methyl butyl phosphate]
[1]
  pKa: 3.20
[2]; pH 1
  MIC: 9.8 mg/mL
[2]; pH 3
  MIC: 37.5 mg/mL
[2]; pH 4
  MIC: 75 mg/mL
[2]; pH 5
  MIC: >75 mg/mL
[2]; pH 7
  MIC: >75 mg/mL
[3]
  Nu-8 MIC (mg/mL) at pH 3.5: 4.69-9.38 mg/mL
[4]; day 3
  antibacterial effect on A. baumannii vs day 3 vehicle control: significant antibacterial effect; also recorded: significant antibacterial activity
[4]; day 5
  antibacterial effect on A. baumannii vs day 3 vehicle control: significant antibacterial effect; also recorded: significant antibacterial activity
[4]; 10% solution aerosol, day 1, p>0.05
  activity vs vehicle control on day 1: No significant activity
[4]; 3 doses, once daily for 3 days, p < 0.05 vs corresponding vehicle control
  Log10 CFU/g lung Mean ± SD: 4.01 ± 0.72 Log10 CFU/g lung
[4]; 3 doses, once daily for 3 days
  Log10 CFU/g lung: 4.75 Log10 CFU/g lung and 3.02 Log10 CFU/g lung and 4.34 Log10 CFU/g lung and 3.19 Log10 CFU/g lung and 4.29 Log10 CFU/g lung and 4.46 Log10 CFU/g lung
[4]; 5 doses, once daily for 5 days, p < 0.05 vs day 3 vehicle control
  Log10 CFU/g lung Mean ± SD: 2.69 ± 0.16 Log10 CFU/g lung
[4]; 5 doses, once daily for 5 days
  Log10 CFU/g lung: 2.76 Log10 CFU/g lung and 2.51 Log10 CFU/g lung and 2.71 Log10 CFU/g lung and 2.62 Log10 CFU/g lung and 2.96 Log10 CFU/g lung and 2.60 Log10 CFU/g lung
[4]; single dose
  Log10 CFU/g lung Mean ± SD: 5.67 ± 0.47 Log10 CFU/g lung
  Log10 CFU/g lung: 5.51 Log10 CFU/g lung and 6.03 Log10 CFU/g lung and 5.54 Log10 CFU/g lung and 6.30 Log10 CFU/g lung and 5.72 Log10 CFU/g lung and 4.93 Log10 CFU/g lung
[4]; following treatment for 5 days
  decrease in lung burden compared to the vehicle on day 1: > 3 Log10) CFU/g lung
